Reference: patent US20230165979A1, “COPPER-CONTAINING THERAGNOSTIC COMPOSITIONS AND METHODS OF USE” (Cornell University, priority 2020, published 2023)

How the values were obtained:
LNCaP tumors [1] = conditions: over 96 h p.i.; same animal model; previously determined; cited from earlier work
LNCaP tumors [2] = experiment: Published biodistribution of 177Lu-labeled comparison ligands in the same animal model; assay type: in vivo, mice; conditions: over 96 h p.i.; from previously determined values
Experimental: When tumor size reached approximately 200 mm^3, mice (n=4/time point) were administered 3.8±0.1 MBq [^64Cu]Cu-RPS-085 or 0.8±0.005 MBq [^67Cu]Cu-RPS-085 by intravenous injection. The total mass dose received by each animal was approximately 50 ng (31 pmol) and approximately 28 ng (17 pmol) for the [^64Cu]Cu-RPS-085 and [^67Cu]Cu-RPS-085 studies, respectively. The mice were sacrificed at 4 h, 24 h, or 48 h p.i. ([^64Cu]Cu-RPS-085) or 4 h, 24 h, and 96 h ([^67Cu]Cu-RPS-085). A blood sample was collected, and the following tissues were collected and weighed wet using a digital balance: heart, lungs, liver, stomach, small intestine, large intestine, spleen, pancreas, kidneys, muscle, bone, and tumor. The tissues were counted on a Wizard2 Automatic Gamma Counter (Perkin Elmer, USA) against a 1% injected dose standard. The counts were corrected for decay and for activity injected, and tissue uptake was expressed as percent injected dose per gram (% ID/g). Standard error of the mean (SEM) was calculated for each data point. Statistical analyses were performed using an unpaired t test with GraphPad Prism software. A P value of less than 0.05 was considered significant. […] Published values for [177Lu]Lu-RPS-063 are shown for comparison; all concentrations are expressed as percent injected dose per organ.

[^177Lu]Lu-PSMA-617
accumulated activity (Ã) in LNCaP tumors (LNCaP tumors [1]): 544 (% ID/g)·h | accumulated activity (Ã) in kidneys (LNCaP tumors [1]): 260 (% ID/g)·h | Ãtumor/Ãkidney ratio (LNCaP tumors [2]): 2.1
